{"source": "patent US20100298141A1", "about": "“SUBSTITUTED PYRIDINE N-OXIDE HERBICIDES” (E. I. DU PONT DE NEMOURS AND COMPANY, priority 2007, published 2010)", "assay_in_all_cases": "Test F preemergence test", "conditions_in_all_cases": "scale 0 to 100", "key": {"goosegrass": {"tested_on": "goosegrass", "type": "in vivo, Eleusine indica", "in_short": "(§1)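 Test chemicals were formulated in a non-phytotoxic solvent mixture with surfactant and applied preemergence to planted seeds or postemergence to sugarcane plants. Plants were kept in a greenhouse for 14 to 21 days, then visually evaluated against controls.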"}, "bermudagrass": {"tested_on": "bermudagrass", "type": "in vivo, Cynodon dactylon", "in_short": "as §1"}, "common ragweed": {"tested_on": "common ragweed", "type": "in vivo, Ambrosia elation", "in_short": "as §1"}, "common groundsel": {"tested_on": "common groundsel", "type": "in vivo, Senecio vulgaris", "in_short": "as §1"}, "southern sandbur": {"tested_on": "southern sandbur", "type": "in vivo, Cenchrus echinatus", "in_short": "as §1"}, "Italian ryegrass": {"tested_on": "Italian ryegrass", "type": "in vivo, Lolium multiflorum", "in_short": "as §1"}, "kochia": {"tested_on": "kochia", "type": "in vivo, Kochia scoparia", "in_short": "as §1"}, "Surinam grass": {"tested_on": "Surinam grass", "type": "in vivo, Brachiaria decumbens", "in_short": "as §1"}, "common purslane": {"tested_on": "common purslane", "type": "in vivo, Portulaca oleracea", "in_short": "as §1"}, "prickly sida": {"tested_on": "prickly sida", "type": "in vivo, Sida spinosa", "in_short": "as §1"}, "naked crabgrass": {"tested_on": "naked crabgrass", "type": "in vivo, Digitaria nuda", "in_short": "as §1"}, "johnsongrass": {"tested_on": "johnsongrass", "type": "in vivo, Sorghum halepense", "in_short": "as §1"}, "large crabgrass": {"tested_on": "large crabgrass", "type": "in vivo, Digitaria sanguinalis", "in_short": "as §1"}, "purple nutsedge": {"tested_on": "purple nutsedge", "type": "in vivo, Cyperus rotundus", "in_short": "as §1"}, "guineagrass": {"tested_on": "guineagrass", "type": "in vivo, Panicum maximum", "in_short": "as §1"}, "pitted morningglory": {"tested_on": "pitted morningglory", "type": "in vivo, Ipomoea lacunosa", "in_short": "as §1"}, "quackgrass": {"tested_on": "quackgrass", "type": "in vivo, Elytrigia repens", "in_short": "as §1"}}, "data": [{"smiles": "Cc1cc[n+]([O-])c([S+]([O-])Cc2c(C(F)(F)F)nn(C)c2OCC(F)(F)F)c1", "note": "(racemic) [Compound 30]", "values": [{"measurement": "Goosegrass plant response rating", "setting": "goosegrass; 62 g ai/ha, Preemergence", "result": 90}, {"measurement": "Goosegrass plant response rating", "setting": "goosegrass; 125 g ai/ha, preemergence", "result": 98}, {"measurement": "Plant response rating, Goosegrass", "setting": "goosegrass; Preemergence, 16 g ai/ha", "result": 40}, {"measurement": "Plant response rating, Goosegrass", "setting": "goosegrass; Preemergence, 31 g ai/ha", "result": 75}, {"measurement": "Bermudagrass plant response rating", "setting": "bermudagrass; 62 g ai/ha, Preemergence", "result": 98}, {"measurement": "Bermudagrass plant response rating", "setting": "bermudagrass; 125 g ai/ha, preemergence", "result": 100}, {"measurement": "Plant response rating, Bermudagrass", "setting": "bermudagrass; Preemergence, 16 g ai/ha", "result": 40}, {"measurement": "Plant response rating, Bermudagrass", "setting": "bermudagrass; Preemergence, 31 g ai/ha", "result": 80}, {"measurement": "Ragweed plant response rating", "setting": "common ragweed; 62 g ai/ha, Preemergence", "result": 80}, {"measurement": "Ragweed plant response rating", "setting": "common ragweed; 125 g ai/ha, preemergence", "result": 95}, {"measurement": "Plant response rating, Ragweed", "setting": "common ragweed; Preemergence, 16 g ai/ha", "result": 50}, {"measurement": "Plant response rating, Ragweed", "setting": "common ragweed; Preemergence, 31 g ai/ha", "result": 60}, {"measurement": "Groundsel plant response rating", "setting": "common groundsel; 62 g ai/ha, Preemergence", "result": 90}, {"measurement": "Groundsel plant response rating", "setting": "common groundsel; 125 g ai/ha, preemergence", "result": 100}, {"measurement": "Plant response rating, Groundsel", "setting": "common groundsel; Preemergence, 16 g ai/ha", "result": 50}, {"measurement": "Plant response rating, Groundsel", "setting": "common groundsel; Preemergence, 31 g ai/ha", "result": 90}, {"measurement": "Sandbur plant response rating", "setting": "southern sandbur; 62 g ai/ha, Preemergence", "result": 100}, {"measurement": "Sandbur plant response rating", "setting": "southern sandbur; 125 g ai/ha, preemergence", "result": 100}, {"measurement": "Plant response rating, Sandbur", "setting": "southern sandbur; Preemergence, 31 g ai/ha", "result": 50}, {"measurement": "Ryegrass, Italian plant response rating", "setting": "Italian ryegrass; 62 g ai/ha, Preemergence", "result": 80}, {"measurement": "Ryegrass, Italian plant response rating", "setting": "Italian ryegrass; 125 g ai/ha, preemergence", "result": 95}, {"measurement": "Plant response rating, Ryegrass, Italian", "setting": "Italian ryegrass; Preemergence, 16 g ai/ha", "result": 60}, {"measurement": "Plant response rating, Ryegrass, Italian", "setting": "Italian ryegrass; Preemergence, 31 g ai/ha", "result": 70}, {"measurement": "Kochia plant response rating", "setting": "kochia; 62 g ai/ha, Preemergence", "result": 95}, {"measurement": "Kochia plant response rating", "setting": "kochia; 125 g ai/ha, preemergence", "result": 95}, {"measurement": "Plant response rating, Kochia", "setting": "kochia; Preemergence, 16 g ai/ha", "result": 90}, {"measurement": "Plant response rating, Kochia", "setting": "kochia; Preemergence, 31 g ai/ha", "result": 90}, {"measurement": "Surinam Grass plant response rating", "setting": "Surinam grass; 62 g ai/ha, Preemergence", "result": 80}, {"measurement": "Surinam Grass plant response rating", "setting": "Surinam grass; 125 g ai/ha, preemergence", "result": 100}, {"measurement": "Plant response rating, Surinam Grass", "setting": "Surinam grass; Preemergence, 31 g ai/ha", "result": 75}, {"measurement": "Purslane plant response rating", "setting": "common purslane; 62 g ai/ha, Preemergence", "result": 75}, {"measurement": "Purslane plant response rating", "setting": "common purslane; 125 g ai/ha, preemergence", "result": 100}, {"measurement": "Plant response rating, Purslane", "setting": "common purslane; Preemergence, 16 g ai/ha", "result": 35}, {"measurement": "Plant response rating, Purslane", "setting": "common purslane; Preemergence, 31 g ai/ha", "result": 50}, {"measurement": "Prickly Sida plant response rating", "setting": "prickly sida; 62 g ai/ha, Preemergence", "result": 95}, {"measurement": "Prickly Sida plant response rating", "setting": "prickly sida; 125 g ai/ha, preemergence", "result": 100}, {"measurement": "Plant response rating, Prickly Sida", "setting": "prickly sida; Preemergence, 16 g ai/ha", "result": 60}, {"measurement": "Plant response rating, Prickly Sida", "setting": "prickly sida; Preemergence, 31 g ai/ha", "result": 80}, {"measurement": "Crabgrass, Naked plant response rating", "setting": "naked crabgrass; 62 g ai/ha, Preemergence", "result": 100}, {"measurement": "Crabgrass, Naked plant response rating", "setting": "naked crabgrass; 125 g ai/ha, preemergence", "result": 100}, {"measurement": "Plant response rating, Crabgrass, Naked", "setting": "naked crabgrass; Preemergence, 16 g ai/ha", "result": 80}, {"measurement": "Plant response rating, Crabgrass, Naked", "setting": "naked crabgrass; Preemergence, 31 g ai/ha", "result": 98}, {"measurement": "Johnsongrass plant response rating", "setting": "johnsongrass; 62 g ai/ha, Preemergence", "result": 80}, {"measurement": "Johnsongrass plant response rating", "setting": "johnsongrass; 125 g ai/ha, preemergence", "result": 100}, {"measurement": "Plant response rating, Johnsongrass", "setting": "johnsongrass; Preemergence, 16 g ai/ha", "result": 40}, {"measurement": "Plant response rating, Johnsongrass", "setting": "johnsongrass; Preemergence, 31 g ai/ha", "result": 60}, {"measurement": "Crabgrass, Large plant response rating", "setting": "large crabgrass; 62 g ai/ha, Preemergence", "result": 100}, {"measurement": "Crabgrass, Large plant response rating", "setting": "large crabgrass; 125 g ai/ha, preemergence", "result": 100}, {"measurement": "Plant response rating, Crabgrass, Large", "setting": "large crabgrass; Preemergence, 16 g ai/ha", "result": 40}, {"measurement": "Plant response rating, Crabgrass, Large", "setting": "large crabgrass; Preemergence, 31 g ai/ha", "result": 50}, {"measurement": "Purple Nutsedge plant response rating", "setting": "purple nutsedge; 62 g ai/ha, Preemergence", "result": 70}, {"measurement": "Purple Nutsedge plant response rating", "setting": "purple nutsedge; 125 g ai/ha, preemergence", "result": 90}, {"measurement": "Plant response rating, Purple Nutsedge", "setting": "purple nutsedge; Preemergence, 16 g ai/ha", "result": 0}, {"measurement": "Plant response rating, Purple Nutsedge", "setting": "purple nutsedge; Preemergence, 31 g ai/ha", "result": 40}, {"measurement": "Guineagrass plant response rating", "setting": "guineagrass; 62 g ai/ha, Preemergence", "result": 100}, {"measurement": "Guineagrass plant response rating", "setting": "guineagrass; 125 g ai/ha, preemergence", "result": 100}, {"measurement": "Plant response rating, Guineagrass", "setting": "guineagrass; Preemergence, 16 g ai/ha", "result": 35}, {"measurement": "Plant response rating, Guineagrass", "setting": "guineagrass; Preemergence, 31 g ai/ha", "result": 100}, {"measurement": "Morningglory plant response rating", "setting": "pitted morningglory; 62 g ai/ha, Preemergence", "result": 90}, {"measurement": "Morningglory plant response rating", "setting": "pitted morningglory; 125 g ai/ha, preemergence", "result": 100}, {"measurement": "Plant response rating, Morningglory", "setting": "pitted morningglory; Preemergence, 16 g ai/ha", "result": 20}, {"measurement": "Plant response rating, Morningglory", "setting": "pitted morningglory; Preemergence, 31 g ai/ha", "result": 60}, {"measurement": "Quackgrass plant response rating", "setting": "quackgrass; 62 g ai/ha, Preemergence", "result": 70}, {"measurement": "Quackgrass plant response rating", "setting": "quackgrass; 125 g ai/ha, preemergence", "result": 75}, {"measurement": "Plant response rating, Quackgrass", "setting": "quackgrass; Preemergence, 16 g ai/ha", "result": 15}, {"measurement": "Plant response rating, Quackgrass", "setting": "quackgrass; Preemergence, 31 g ai/ha", "result": 40}]}]}
